Laboratory results: patent US20250235460A1, “COMBINATION THERAPY USING GLUCOSE-DEPENDENT INSULINOTROPIC POLYPEPTIDE RECEPTOR ANTAGONIST COMPOUNDS AND GLP-1 RECEPTOR AGONIST COMPOUNDS” (Pfizer Inc., priority 2024, published 2025)

How the values were obtained:
human GLP-1R [1] = target: human GLP-1R (Homo sapiens, UniProt P43220, L260F); assay: CHO GLP-1R Clone C6 cAMP HTRF agonist assay (Assay 2, low receptor density); type: cell-based; details: for EC50: CHO GLP-1R clone C6, cAMP HTRF, geometric mean; for Emax: CHO GLP-1R clone C6, arithmetic mean, relative to saturating GLP-1 (1 μM)
human GLP-1R (Homo sapiens, UniProt P43220, L260F), sequence (P43220 24-463 L260F): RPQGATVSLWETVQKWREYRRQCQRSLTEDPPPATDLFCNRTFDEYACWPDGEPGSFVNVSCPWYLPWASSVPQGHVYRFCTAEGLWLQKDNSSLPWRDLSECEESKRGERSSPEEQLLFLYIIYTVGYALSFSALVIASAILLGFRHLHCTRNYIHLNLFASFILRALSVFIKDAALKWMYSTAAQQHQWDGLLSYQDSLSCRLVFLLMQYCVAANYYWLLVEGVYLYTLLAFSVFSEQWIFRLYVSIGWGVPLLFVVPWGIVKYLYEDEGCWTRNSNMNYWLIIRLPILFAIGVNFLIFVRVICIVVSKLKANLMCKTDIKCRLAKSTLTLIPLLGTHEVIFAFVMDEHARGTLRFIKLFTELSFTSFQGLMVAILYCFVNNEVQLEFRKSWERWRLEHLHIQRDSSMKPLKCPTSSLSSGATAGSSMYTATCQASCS
Description: In Table 5 and Table 6, assay data are presented to two (2) significant figures as the geometric mean (EC50s) and arithmetic mean (Emax) based on the number of replicates listed (Number). A blank cell means there was no data for that Example or the Emax was not calculated.

human GLP-1R [2] = target: human GLP-1R (Homo sapiens, UniProt P43220, G168S); assay: CHO GLP-1R Clone H6 cAMP HTRF agonist assay (Assay 1, high receptor density); type: cell-based; details: for EC50: CHO GLP-1R clone H6, cAMP HTRF, geometric mean; for Emax: CHO GLP-1R clone H6, arithmetic mean, relative to saturating GLP-1 (1 μM), read-out: Assay 1 Emax (%)
human GLP-1R (Homo sapiens, UniProt P43220, G168S), sequence (P43220 24-463 G168S): as the sequence (P43220 24-463 L260F) above, with G145S, F237L counted along it
Procedure, shortened: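 EC50 values are reported as geometric means and Emax as arithmetic means across the listed number of replicates, both given to two significant figures.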

Structure (SMILES)	EC50 (human GLP-1R [1]) [µM]	Emax (human GLP-1R [1]) [%]	EC50 (human GLP-1R [2]) [µM]	Emax (human GLP-1R [2]) [%]
Cn1cnnc1Cn1c(CN2CCC(c3cccc(OCc4ccc(Cl)cc4F)n3)CC2)nc2ccc(C(=O)O)cc21 [Compound 345B, 2-[(4-{6-[(4-chloro-2-fluorobenzyl)oxy]pyridin-2-yl}piperidin-1-yl)methyl]-1-[(4-methyl-4H-1,2,4-triazol-3-yl)methyl]-1H-benzimidazole-6-carboxylic acid]	0.15	97	0.0061	89
N#Cc1ccc(COc2cccc(C3CCN(Cc4nc5ccc(C(=O)O)cc5n4CC4CCCO4)CC3)n2)cc1 (centres unmarked) [Compound 359B, 2-[(4-{6-[(4-cyanobenzyl)oxy]pyridin-2-yl}piperidin-1-yl)methyl]-1-(tetrahydrofuran-2-ylmethyl)-1H-benzimidazole-6-carboxylic acid]	0.055	75	0.0019	63
N#Cc1ccc(COc2nc(C3CCN(Cc4nc5ccc(C(=O)O)cc5n4CC4CCCO4)CC3)ccc2F)cc1 (centres unmarked) [Compound 360B, 2-[(4-{6-[(4-cyanobenzyl)oxy]-5-fluoropyridin-2-yl}piperidin-1-yl)methyl]-1-(tetrahydrofuran-2-ylmethyl)-1H-benzimidazole-6-carboxylic acid]	–	84	–	72
N#Cc1ccc(COc2nc(C3CCN(Cc4nc5ccc(C(=O)O)cc5n4CC4CCOC4)CC3)ccc2F)cc1 (centres unmarked) [Compound 361B, 2-[(4-{6-[(4-cyanobenzyl)oxy]-5-fluoropyridin-2-yl}piperidin-1-yl)methyl]-1-(tetrahydrofuran-3-ylmethyl)-1H-benzimidazole-6-carboxylic acid]	–	81	–	73
C[C@H]1CN(c2cccc(OCc3ccc(C#N)cc3)n2)CCN1Cc1nc2ccc(C(=O)O)cc2n1CC1CCCO1 (stereo partly drawn) [Compound 362B, 2-{[(2S)-4-{6-[(4-cyanobenzyl)oxy]pyridin-2-yl}-2-methylpiperazin-1-yl]methyl}-1-(tetrahydrofuran-2-ylmethyl)-1H-benzimidazole-6-carboxylic acid]	0.27	–	0.012	64
N#Cc1ccc(COc2cccc(C3CCN(Cc4nc5ccc(C(=O)O)cc5n4CC4CCOC4)CC3)n2)c(F)c1 (centres unmarked) [Compound 363B, 2-[(4-{6-[(4-cyano-2-fluorobenzyl)oxy]pyridin-2-yl}piperidin-1-yl)methyl]-1-(tetrahydrofuran-3-ylmethyl)-1H-benzimidazole-6-carboxylic acid]	–	71	–	65
C[C@H]1CN(c2cccc(OCc3ccc(C#N)cc3F)n2)CCN1Cc1nc2ccc(C(=O)O)cc2n1CC1CCCO1 (stereo partly drawn) [Compound 364B, 2-{[(2S)-4-{6-[(4-cyano-2-fluorobenzyl)oxy]pyridin-2-yl}-2-methylpiperazin-1-yl]methyl}-1-(tetrahydrofuran-2-ylmethyl)-1H-benzimidazole-6-carboxylic acid]	0.02	–	0.0014	–

Further lines, results first:

EC50 (human GLP-1R [1]) [µM]	Emax (human GLP-1R [1]) [%]	EC50 (human GLP-1R [2]) [µM]	Emax (human GLP-1R [2]) [%]	Structure (SMILES)
0.54	–	0.021	79	O=C(O)c1ccc2nc(CN3CCC(c4cccc(OCc5ccc(Cl)cc5F)n4)CC3)n(CCC(F)(F)F)c2c1 [Compound 346B, 2-[(4-{6-[(4-chloro-2-fluorobenzyl)oxy]pyridin-2-yl}piperidin-1-yl)methyl]-1-(3,3,3-trifluoropropyl)-1H-benzimidazole-6-carboxylic acid]
0.17	96	0.0069	78	COCC1(Cn2c(CN3CCC(c4cccc(OCc5ccc(Cl)cc5F)n4)CC3)nc3ccc(C(=O)O)cc32)CCC1 [Compound 347B, 2-[(4-{6-[(4-chloro-2-fluorobenzyl)oxy]pyridin-2-yl}piperidin-1-yl)methyl]-1-{[1-(methoxymethyl)cyclobutyl]methyl}-1H-benzimidazole-6-carboxylic acid]
2.1	100	0.054	81	COCCn1c(CN2CCN(c3cccc(OCc4ccc(Cl)cc4F)n3)CC2C(F)(F)F)nc2ccc(C(=O)O)cc21 (centres unmarked) [Compound 348B, 2-((4-(6-((4-Chloro-2-fluorobenzyl)oxy)pyridin-2-yl)-2-(trifluoromethyl)piperazin-1-yl)methyl)-1-(2-methoxyethyl)-1H-benzo[d]imidazole-6-carboxylic acid]
0.12	80	0.0052	66	COCCn1c(CN2CCN(c3cccc(OCc4ccc(Cl)cc4F)n3)C[C@@H]2C(C)C)nc2ccc(C(=O)O)cc21 [Compound 351B, 2-{[(2S)-4-{6-[(4-chloro-2-fluorobenzyl)oxy]pyridin-2-yl}-2-(propan-2-yl)piperazin-1-yl]methyl}-1-(2-methoxyethyl)-1H-benzimidazole-6-carboxylic acid]
1.4	83	0.046	66	COCCn1c(CN2CCN(c3cccc(OCc4ccc(Cl)cc4F)n3)CC2(C)C)nc2ccc(C(=O)O)cc21 [Compound 352B, 2-[(4-{6-[(4-chloro-2-fluorobenzyl)oxy]pyridin-2-yl}-2,2-dimethylpiperazin-1-yl)methyl]-1-(2-methoxyethyl)-1H-benzimidazole-6-carboxylic acid]
0.2	89	0.0056	80	CC[C@H]1CN(c2cccc(OCc3ccc(Cl)cc3F)n2)CCN1Cc1nc2ccc(C(=O)O)cc2n1CCOC [Compound 353B, 2-{[(2S)-4-{6-[(4-chloro-2-fluorobenzyl)oxy]pyridin-2-yl}-2-ethylpiperazin-1-yl]methyl}-1-(2-methoxyethyl)-1H-benzimidazole-6-carboxylic acid]
1.5	69	0.094	78	COCCn1c(CN2CCN(c3cccc(OCc4ccc(Cl)cc4F)n3)C[C@@H]2CO)nc2ccc(C(=O)O)cc21 [Compound 354B, 2-{[(2R)-4-{6-[(4-chloro-2-fluorobenzyl)oxy]pyridin-2-yl}-2-(hydroxymethyl)piperazin-1-yl]methyl}-1-(2-methoxyethyl)-1H-benzimidazole-6-carboxylic acid]
0.11	87	0.0063	83	COCCn1c(CN2CCN(c3cccc(OCc4ccc(Cl)cc4F)n3)C[C@@H]2C)nc2ccc(C(=O)O)cc21 [Compound 355B, 2-{[(2S)-4-{6-[(4-chloro-2-fluorobenzyl)oxy]pyridin-2-yl}-2-methylpiperazin-1-yl]methyl}-1-(2-methoxyethyl)-1H-benzimidazole-6-carboxylic acid]
1.1	75	0.1	–	COCCn1c(CN2CCN(c3cccc(OCc4ccc(Cl)cc4F)n3)C[C@H]2C)nc2ccc(C(=O)O)cc21 [Compound 356B, 2-{[(2R)-4-{6-[(4-chloro-2-fluorobenzyl)oxy]pyridin-2-yl}-2-methylpiperazin-1-yl]methyl}-1-(2-methoxyethyl)-1H-benzimidazole-6-carboxylic acid]
